{"source": "ChEMBL document CHEMBL5154871", "about": "“Non-peptidyl non-covalent cathepsin C inhibitoEEr bearing a unique thiophene-substituted pyridine: Design, structure-activity relationship and anti-inflammatory activity in vivo” (Eur J Med Chem, 2022)", "key": {"Mus musculus [1]": {"test_system": "Mus musculus", "test": "Anti-inflammatory activity against po dosed LPS-induced ALI C57BL/6 mouse model assessed as decrease in IL-6 level in lungs treated 1 hr prior to LPS challenge and measured after 48 hrs by ELISA", "type": "functional, organism-based", "conditions": "dose 2-50 mg/kg, time 49.0 hrs, DDE = dose-dependent effect"}, "[2]": {"target": "T1, Dipeptidyl peptidase 1 (Mus musculus) (UniProt P97821)", "T1 sequence (whole entry)": "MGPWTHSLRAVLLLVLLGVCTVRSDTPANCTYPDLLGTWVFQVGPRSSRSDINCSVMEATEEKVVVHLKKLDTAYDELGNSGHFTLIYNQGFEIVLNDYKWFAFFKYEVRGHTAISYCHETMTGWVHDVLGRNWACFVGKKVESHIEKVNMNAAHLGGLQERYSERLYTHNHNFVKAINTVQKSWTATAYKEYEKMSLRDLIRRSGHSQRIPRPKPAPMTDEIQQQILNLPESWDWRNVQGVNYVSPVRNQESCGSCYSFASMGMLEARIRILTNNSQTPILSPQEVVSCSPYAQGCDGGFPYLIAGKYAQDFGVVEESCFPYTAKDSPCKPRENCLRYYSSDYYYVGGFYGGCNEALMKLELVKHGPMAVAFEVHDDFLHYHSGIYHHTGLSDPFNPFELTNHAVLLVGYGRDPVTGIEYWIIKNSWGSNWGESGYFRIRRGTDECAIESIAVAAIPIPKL", "test": "Inhibition of Cathepsin C in C57BL/6 mouse Bone marrow cells assessed as reduction of NSPs stability by measuring stability of protease 3 at 1 uM treated for 48 hrs by Western blotting analysis", "type": "cell-based", "design": "scale not given: the % may be the effect or the level left", "conditions": "Bone marrow cell"}, "[3]": {"test": "Acute toxicity in ICR mouse assessed as pathological changes of liver at 1500 mg/kg, po administered as single dose measured after 7 days by H and E staining based assay", "type": "organism-based", "conditions": "in vivo, time 7 day"}, "[4]": {"test": "Acute toxicity in ICR mouse assessed as mortality at 1500 mg/kg, po administered as single dose and measured for 7 days", "type": "organism-based", "conditions": "in vivo, time 7 day"}, "Mus musculus [5]": {"test_system": "Mus musculus", "test": "In vivo inhibition of cathepsin C in po dosed LPS-induced ALI C57BL/6 mouse model assessed as downregulation of neutrophil elastase activity in bone marrow treated 1 hr prior to LPS challenge and measured after 48 hrs", "type": "functional, organism-based", "conditions": "dose 2-50 mg/kg, time 49.0 hrs, DDE = dose-dependent effect"}, "Mus musculus [6]": {"test_system": "Mus musculus", "test": "In vivo inhibition of cathepsin C in po dosed LPS-induced ALI C57BL/6 mouse model assessed as downregulation of Cat G activity in blood treated 1 hr prior to LPS challenge and measured after 48 hrs", "type": "functional, organism-based", "conditions": "dose 2-50 mg/kg, time 49.0 hrs, DDE = dose-dependent effect"}, "Mus musculus [7]": {"test_system": "Mus musculus", "test": "Anti-inflammatory activity against po dosed LPS-induced ALI C57BL/6 mouse model assessed as decrease in GM-CSF level in lungs treated 1 hr prior to LPS challenge and measured after 48 hrs by ELISA", "type": "functional, organism-based", "conditions": "dose 2-50 mg/kg, time 49.0 hrs, DDE = dose-dependent effect"}, "Mus musculus [8]": {"test_system": "Mus musculus", "test": "Anti-inflammatory activity against po dosed LPS-induced ALI C57BL/6 mouse model assessed as decrease in MPO activity in lungs treated 1 hr prior to LPS challenge and measured after 48 hrs", "type": "functional, organism-based", "conditions": "dose 2-50 mg/kg, time 49.0 hrs, DDE = dose-dependent effect"}, "[9]": {"test": "Acute toxicity in ICR mouse assessed as pathological changes of kidney at 1500 mg/kg, po administered as single dose measured after 7 days by H and E staining based assay", "type": "organism-based", "conditions": "in vivo, time 7 day"}, "Dipeptidyl peptidase 1 [10]": {"target": "T2, Dipeptidyl peptidase 1 (Homo sapiens, UniProt P53634)", "T2 sequence (P53634 25-134 limits assumed)": "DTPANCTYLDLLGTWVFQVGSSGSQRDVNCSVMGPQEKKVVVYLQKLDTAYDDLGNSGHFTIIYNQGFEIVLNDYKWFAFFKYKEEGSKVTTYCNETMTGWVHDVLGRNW", "T2 sequence (P53634 231-394 limits assumed)": "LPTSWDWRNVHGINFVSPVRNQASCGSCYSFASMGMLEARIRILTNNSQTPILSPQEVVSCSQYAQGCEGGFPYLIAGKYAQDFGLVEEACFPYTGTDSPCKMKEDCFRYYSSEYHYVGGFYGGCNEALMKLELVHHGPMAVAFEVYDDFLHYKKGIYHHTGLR", "T2 sequence (P53634 395-463 limits assumed)": "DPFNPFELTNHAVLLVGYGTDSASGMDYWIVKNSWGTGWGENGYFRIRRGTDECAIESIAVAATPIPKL", "test": "Binding affinity to Cathepsin C in human U-937 cells assessed as increase in thermal stability measured at 52 degC after 4 hrs by cellular thermal shift assay", "type": "cell-based", "conditions": "dose 0.5-10 µM"}, "[11]": {"test": "Acute toxicity in ICR mouse assessed as body weight loss at 1500 mg/kg, po administered as single dose and measured for 7 days", "type": "organism-based", "conditions": "in vivo, time 7 day"}, "[12]": {"target": "T1, Dipeptidyl peptidase 1 (Mus musculus)", "test": "Inhibition of Cathepsin C in C57BL/6 mouse Bone marrow cells assessed as reduction of NSPs stability by measuring stability of Cat G at 1 uM treated for 6 hrs by Western blotting analysis", "type": "cell-based", "design": "scale not given: the % may be the effect or the level left", "conditions": "Bone marrow cell"}, "Mus musculus [13]": {"test_system": "Mus musculus", "test": "In vivo inhibition of cathepsin C in po dosed LPS-induced ALI C57BL/6 mouse model assessed as downregulation of neutrophil elastase activity in blood treated 1 hr prior to LPS challenge and measured after 48 hrs", "type": "functional, organism-based", "conditions": "dose 2-50 mg/kg, time 49.0 hrs, DDE = dose-dependent effect"}, "Mus musculus [14]": {"test_system": "Mus musculus", "test": "In vivo inhibition of cathepsin C in po dosed LPS-induced ALI C57BL/6 mouse model assessed as downregulation of PR3 activity in bone marrow treated 1 hr prior to LPS challenge and measured after 48 hrs", "type": "functional, organism-based", "conditions": "dose 2-50 mg/kg, time 49.0 hrs, DDE = dose-dependent effect"}, "[15]": {"target": "T1, Dipeptidyl peptidase 1 (Mus musculus)", "test": "Inhibition of Cathepsin C in C57BL/6 mouse Bone marrow cells assessed as reduction of NSPs stability by measuring stability of neutrophil elastase at 1 uM treated for 12 hrs by Western blotting analysis", "type": "cell-based", "design": "scale not given: the % may be the effect or the level left", "conditions": "Bone marrow cell"}, "[16]": {"target": "T1, Dipeptidyl peptidase 1 (Mus musculus)", "test": "Inhibition of Cathepsin C in C57BL/6 mouse Bone marrow cells assessed as reduction of NSPs stability by measuring stability of protease 3 at 1 uM treated for 6 hrs by Western blotting analysis", "type": "cell-based", "design": "scale not given: the % may be the effect or the level left", "conditions": "Bone marrow cell"}, "[17]": {"test": "Acute toxicity in ICR mouse assessed as pathological changes of heart at 1500 mg/kg, po administered as single dose measured after 7 days by H and E staining based assay", "type": "organism-based", "conditions": "in vivo, time 7 day"}, "Mus musculus [18]": {"test_system": "Mus musculus", "test": "Anti-inflammatory activity against LPS-induced ALI C57BL/6 mouse model assessed as decrease in pulmonary edema by measuring decrease in lung wet/dry ratio at 2 to 50 mg/kg, po treated 1 hr prior to LPS challenge and measured after 48 hrs", "type": "functional, organism-based", "conditions": "dose 2-50 mg/kg, time 49.0 hrs"}, "Dipeptidyl peptidase 1 [19]": {"target": "T2, Dipeptidyl peptidase 1", "test": "Inhibition of human recombinant Cathepsin C using H-Gly-Arg-AMC as substrate pretreated for 30 mins followed by substrate addition and incubated for 60 mins by microplate reader assay"}, "Mus musculus [20]": {"test_system": "Mus musculus", "test": "Anti-inflammatory activity against po dosed LPS-induced ALI C57BL/6 mouse model assessed as decrease in IL-6 level in serum treated 1 hr prior to LPS challenge and measured after 48 hrs by ELISA", "type": "functional, organism-based", "conditions": "dose 2-50 mg/kg, time 49.0 hrs, DDE = dose-dependent effect"}, "Cathepsin B": {"target": "Cathepsin B (Homo sapiens, UniProt P07858)", "test": "Inhibition of human recombinant Cathepsin B using Z-Leu-Arg-AMC as substrate pretreated for 60 mins followed by substrate addition and incubated for 30 mins by microplate reader assay"}, "[21]": {"test": "Acute toxicity in ICR mouse assessed as animal behavioural changes at 1500 mg/kg, po administered as single dose and measured for 7 days", "type": "organism-based", "conditions": "in vivo, time 7 day"}, "[22]": {"test": "Cmax in Sprague-Dawley rat at 2 mg/kg, iv measured after 24 hrs by LC-MS/MS analysis", "type": "ADME, organism-based", "design": "time 24 hrs, dose 2 mg/kg, route iv", "conditions": "in vivo"}, "[23]": {"test": "Acute toxicity in ICR mouse assessed as pathological changes of spleen at 1500 mg/kg, po administered as single dose measured after 7 days by H and E staining based assay", "type": "organism-based", "conditions": "in vivo, time 7 day"}, "Mus musculus [24]": {"test_system": "Mus musculus", "test": "Anti-inflammatory activity against po dosed LPS-induced ALI C57BL/6 mouse model assessed as decrease in TNF-alpha level in lungs treated 1 hr prior to LPS challenge and measured after 48 hrs by ELISA", "type": "functional, organism-based", "conditions": "dose 2-50 mg/kg, time 49.0 hrs, DDE = dose-dependent effect"}}, "note": "The source made the active and inactive calls. The rule behind the calls is not given here."}
{"smiles": "CC(=O)Nc1cccc(Nc2nc(Nc3ccc(-c4ccsc4)cn3)ncc2Cl)c1", "values": [{"measurement": "Activity", "setting": "Mus musculus [1]", "value": "Dde"}, {"measurement": "Activity", "setting": "[2]", "value": 46.8, "unit": "%"}, {"measurement": "Activity", "setting": "[3]", "value": "Non-Toxic"}, {"measurement": "Activity", "setting": "[4]", "value": "Non-Toxic"}, {"measurement": "inhibition", "setting": "Mus musculus [5]", "value": "Dde"}, {"measurement": "inhibition", "setting": "Mus musculus [6]", "value": "Dde"}, {"measurement": "Activity", "setting": "Mus musculus [7]", "value": "Dde"}, {"measurement": "Activity", "setting": "Mus musculus [8]", "value": "Dde"}, {"measurement": "Activity", "setting": "[9]", "value": "Non-Toxic"}, {"measurement": "Activity", "setting": "Dipeptidyl peptidase 1 [10]", "value": "Active"}, {"measurement": "Activity", "setting": "[11]", "value": "Non-Toxic"}, {"measurement": "Activity", "setting": "[12]", "value": 93.4, "unit": "%"}, {"measurement": "inhibition", "setting": "Mus musculus [13]", "value": "Dde"}, {"measurement": "inhibition", "setting": "Mus musculus [14]", "value": "Dde"}, {"measurement": "Activity", "setting": "[15]", "value": 68.3, "unit": "%"}, {"measurement": "Activity", "setting": "[16]", "value": 95.6, "unit": "%"}, {"measurement": "Activity", "setting": "[17]", "value": "Non-Toxic"}, {"measurement": "Activity", "setting": "Mus musculus [18]", "value": "Active"}, {"measurement": "IC50", "setting": "Dipeptidyl peptidase 1 [19]", "value": 59.9, "unit": "nM"}, {"measurement": "Activity", "setting": "Mus musculus [20]", "value": "Dde"}, {"measurement": "IC50", "setting": "Cathepsin B", "value": "> 5000", "unit": "nM"}, {"measurement": "Activity", "setting": "[21]", "value": "Non-Toxic"}, {"measurement": "Cmax", "setting": "[22]", "value": 309, "unit": "ng/mL"}, {"measurement": "Activity", "setting": "[23]", "value": "Non-Toxic"}, {"measurement": "Activity", "setting": "Mus musculus [24]", "value": "Dde"}]}
